One assay has as its target T1, WEE1 (Homo sapiens, UniProt P30291).
T1 construct: purchased Eurofins DiscoverX KINOMEscan
Briefly: KINOMEscan 1 μM, WEE1. In kind it is binding. The note with it: 1000 nM; Entrez WEE1; read-out: Percent Control. From the text: (§1) Supplement cells-12-00287-s001.zip/File S2. KinomeScan data for the CAMKK2 probe and negative control.xlsx, sheet "SGC-CAMKK2-1" | column: Percent Control

For a further assay, the target named is T2, LTK (Homo sapiens, UniProt P29376).
T2 construct: purchased Eurofins DiscoverX KINOMEscan
Briefly: KINOMEscan 1 μM, LTK. The note with it: 1000 nM; Entrez LTK; read-out: Percent Control. In kind it is binding.
From the text: as §1

The next assay addresses T3, TRPM6 (Homo sapiens, UniProt Q9BX84).
T3 construct: purchased Eurofins DiscoverX KINOMEscan
Briefly: DiscoverX KINOMEscan binding assay at 1 μM, TRPM6. The note with it: Compound Concentration 1000 nM, read-out: Percent Control.
From the text: as §1

For a further assay, the target named is T4, MKK7 (Homo sapiens, UniProt O14733).
T4 construct: purchased Eurofins DiscoverX KINOMEscan
The assay can be described thus: KINOMEscan 1 μM, MKK7. In kind it is binding. The note with it: 1000 nM; Entrez MAP2K7; read-out: Percent Control.
From the text: as §1

The target of a further assay is T5, TESK1 (Homo sapiens, UniProt Q15569).
T5 construct: purchased Eurofins DiscoverX KINOMEscan
The assay can be described thus: DiscoverX KINOMEscan binding assay at 1 μM, TESK1. The conditions noted are these: Compound Concentration 1000 nM, read-out: Percent Control.
From the text: as §1

The target in a further assay is T6, VEGFR2 (Homo sapiens, UniProt P35968).
T6 construct: purchased Eurofins DiscoverX KINOMEscan
Briefly: DiscoverX KINOMEscan binding assay at 1 μM, VEGFR2. The conditions noted are these: VEGFR2 (KDR); Compound Concentration 1000 nM; read-out: Percent Control.
From the text: as §1

The target in the next assay is T7, NEK9 (Homo sapiens, UniProt Q8TD19).
T7 construct: purchased Eurofins DiscoverX KINOMEscan
Briefly: KINOMEscan 1 μM, NEK9. The conditions noted are these: 1000 nM; Entrez NEK9; read-out: Percent Control. Format: binding.
From the text: as §1

Assay [1] has as its target T8, EGFR(L747-S752del, P753S) (Homo sapiens, UniProt P00533, DEL747-752/P753S).
T8 construct: purchased Eurofins DiscoverX KINOMEscan
Briefly: KINOMEscan 1 μM, EGFR(L747-S752del, P753S). The conditions noted are these: 1000 nM; Entrez EGFR; read-out: Percent Control. Format: binding.
From the text: as §1

Another assay concerns the target T9, STK16 (Homo sapiens, UniProt O75716).
T9 construct: purchased Eurofins DiscoverX KINOMEscan
Briefly: KINOMEscan 1 μM, STK16. Format: binding. The note with it: 1000 nM; Entrez STK16; read-out: Percent Control.
From the text: as §1

The target in another assay is T10, PIK3CA(I800L) (Homo sapiens, UniProt P42336, I800L).
T10 construct: purchased Eurofins DiscoverX KINOMEscan
The assay can be described thus: KINOMEscan 1 μM, PIK3CA(I800L). In kind it is binding. The conditions noted are these: 1000 nM; Entrez PIK3CA; read-out: Percent Control.
From the text: as §1

A further assay addresses T11, PRKD3 (Homo sapiens, UniProt O94806).
T11 construct: purchased Eurofins DiscoverX KINOMEscan
Briefly: KINOMEscan 1 μM, PRKD3. Format: binding. The note with it: 1000 nM; Entrez PRKD3; read-out: Percent Control.
From the text: as §1

A further assay concerns the target T12, YSK1 (Homo sapiens, UniProt O00506).
T12 construct: purchased Eurofins DiscoverX KINOMEscan
The assay can be described thus: DiscoverX KINOMEscan binding assay at 1 μM, YSK1. The note with it: YSK1 (STK25); Compound Concentration 1000 nM; read-out: Percent Control.
From the text: as §1

For a further assay, the target named is T13, CHEK1 (Homo sapiens, UniProt O14757).
T13 construct: purchased Eurofins DiscoverX KINOMEscan
The assay can be described thus: KINOMEscan 1 μM, CHEK1. The note with it: 1000 nM; Entrez CHEK1; read-out: Percent Control. In kind it is binding.
From the text: as §1

The next assay has as its target T14, IKK-alpha (Homo sapiens, UniProt O15111).
T14 construct: purchased Eurofins DiscoverX KINOMEscan
Briefly: KINOMEscan at 1 μM, IKK-alpha. Format: binding. The conditions noted are these: 1000 nM, read-out: Percent Control. From the text: (§2) Supplement cells-12-00287-s001.zip/File S2. KinomeScan data for the CAMKK2 probe and negative control.xlsx, sheet "SGC-CAMKK2-1N" | column: Percent Control

The next assay has as its target T15, QSK (Homo sapiens, UniProt Q9Y2K2).
T15 construct: purchased Eurofins DiscoverX KINOMEscan
The assay can be described thus: KINOMEscan at 1 μM, QSK. Format: binding. The note with it: 1000 nM, read-out: Percent Control.
From the text: as §2

A further assay deals with T16, DRAK1 (Homo sapiens, UniProt Q9UEE5).
T16 construct: purchased Eurofins DiscoverX KINOMEscan
The assay can be described thus: KINOMEscan at 1 μM, DRAK1. The note with it: 1000 nM, read-out: Percent Control. In kind it is binding.
From the text: as §2

The target in a further assay is T17, CDK11 (Homo sapiens, UniProt Q9BWU1).
T17 construct: purchased Eurofins DiscoverX KINOMEscan
Briefly: KINOMEscan at 1 μM, CDK11. In kind it is binding. The note with it: 1000 nM, read-out: Percent Control.
From the text: as §2

The next assay addresses T18, LCK (Homo sapiens, UniProt P06239).
T18 construct: purchased Eurofins DiscoverX KINOMEscan
Briefly: KINOMEscan binding assay at 1 μM, LCK. The note with it: Compound Concentration 1000 nM; read-out: Percent Control.
From the text: as §2

The target of the next assay is T19, CSK (Homo sapiens, UniProt P41240).
T19 construct: purchased Eurofins DiscoverX KINOMEscan
The assay can be described thus: KINOMEscan at 1 μM, CSK. In kind it is binding. The conditions noted are these: 1000 nM, read-out: Percent Control.
From the text: as §2

Another assay addresses T20, PRKX (Homo sapiens, UniProt P51817).
T20 construct: purchased Eurofins DiscoverX KINOMEscan
Briefly: KINOMEscan at 1 μM, PRKX. The conditions noted are these: 1000 nM, read-out: Percent Control. Format: binding.
From the text: as §2

The target of another assay is T21, FGFR3(G697C) (Homo sapiens, UniProt P22607, G697C).
T21 construct: purchased Eurofins DiscoverX KINOMEscan
The assay can be described thus: KINOMEscan at 1 μM, FGFR3(G697C). Format: binding. The note with it: 1000 nM, read-out: Percent Control.
From the text: as §2

Another assay has as its target T22, TRKB (Homo sapiens, UniProt Q16620).
T22 construct: purchased Eurofins DiscoverX KINOMEscan
The assay can be described thus: KINOMEscan at 1 μM, TRKB. In kind it is binding. The note with it: 1000 nM, read-out: Percent Control.
From the text: as §2

The target in another assay is T23, ABL2 (Homo sapiens, UniProt P42684).
T23 construct: purchased Eurofins DiscoverX KINOMEscan
The assay can be described thus: KINOMEscan at 1 μM, ABL2. Format: binding. The conditions noted are these: 1000 nM, read-out: Percent Control.
From the text: as §2

For the next assay, the target named is T24, YANK3 (Homo sapiens, UniProt Q86UX6).
T24 construct: purchased Eurofins DiscoverX KINOMEscan
The assay can be described thus: KINOMEscan at 1 μM, YANK3. Format: binding. The conditions noted are these: 1000 nM, read-out: Percent Control.
From the text: as §2

The target in the next assay is T25, MKNK1 (Homo sapiens, UniProt Q9BUB5).
T25 construct: purchased Eurofins DiscoverX KINOMEscan
Briefly: KINOMEscan at 1 μM, MKNK1. The conditions noted are these: 1000 nM, read-out: Percent Control. In kind it is binding.
From the text: as §2

For the next assay, the target named is T26, EPHA3 (Homo sapiens, UniProt P29320).
T26 construct: purchased Eurofins DiscoverX KINOMEscan
Briefly: KINOMEscan at 1 μM, EPHA3. In kind it is binding. The note with it: 1000 nM, read-out: Percent Control.
From the text: as §2

For a further assay, the target named is T27, ACVRL1 (Homo sapiens, UniProt P37023).
T27 construct: purchased Eurofins DiscoverX KINOMEscan
Briefly: KINOMEscan at 1 μM, ACVRL1. Format: binding. The note with it: 1000 nM, read-out: Percent Control.
From the text: as §2

The target of the next assay is T28, MYLK (Homo sapiens, UniProt Q15746).
T28 construct: purchased Eurofins DiscoverX KINOMEscan
Briefly: KINOMEscan at 1 μM, MYLK. In kind it is binding. The conditions noted are these: 1000 nM, read-out: Percent Control.
From the text: as §2

Another assay deals with T29, PIK3C2G (Homo sapiens, UniProt O75747).
T29 construct: purchased Eurofins DiscoverX KINOMEscan
The assay can be described thus: KINOMEscan binding assay at 1 μM, PIK3C2G. The note with it: Compound Concentration 1000 nM; read-out: Percent Control.
From the text: as §2

The target of a further assay is T30, MUSK (Homo sapiens, UniProt O15146).
T30 construct: purchased Eurofins DiscoverX KINOMEscan
Briefly: KINOMEscan binding assay at 1 μM, MUSK. The conditions noted are these: Compound Concentration 1000 nM; read-out: Percent Control.
From the text: as §2

A further assay deals with T31, MKNK2 (Homo sapiens, UniProt Q9HBH9).
T31 construct: purchased Eurofins DiscoverX KINOMEscan
The assay can be described thus: KINOMEscan at 1 μM, MKNK2. In kind it is binding. The note with it: 1000 nM, read-out: Percent Control.
From the text: as §2

For the next assay, the target named is T32, BMPR1A (Homo sapiens, UniProt P36894).
T32 construct: purchased Eurofins DiscoverX KINOMEscan
Briefly: KINOMEscan at 1 μM, BMPR1A. In kind it is binding. The conditions noted are these: 1000 nM, read-out: Percent Control.
From the text: as §2

The next assay concerns the target T33, CAMK2G (Homo sapiens, UniProt Q13555).
T33 construct: purchased Eurofins DiscoverX KINOMEscan
The assay can be described thus: KINOMEscan at 1 μM, CAMK2G. Format: binding. The note with it: 1000 nM, read-out: Percent Control.
From the text: as §2

The target of the next assay is T34, CLK2 (Homo sapiens, UniProt P49760).
T34 construct: purchased Eurofins DiscoverX KINOMEscan
The assay can be described thus: KINOMEscan at 1 μM, CLK2. In kind it is binding. The conditions noted are these: 1000 nM, read-out: Percent Control.
From the text: as §2

For the next assay, the target named is T35, PYK2 (Homo sapiens, UniProt Q14289).
T35 construct: purchased Eurofins DiscoverX KINOMEscan
Briefly: KINOMEscan at 1 μM, PYK2. Format: binding. The note with it: 1000 nM, read-out: Percent Control.
From the text: as §2

T5 sequence (Q15569 whole entry): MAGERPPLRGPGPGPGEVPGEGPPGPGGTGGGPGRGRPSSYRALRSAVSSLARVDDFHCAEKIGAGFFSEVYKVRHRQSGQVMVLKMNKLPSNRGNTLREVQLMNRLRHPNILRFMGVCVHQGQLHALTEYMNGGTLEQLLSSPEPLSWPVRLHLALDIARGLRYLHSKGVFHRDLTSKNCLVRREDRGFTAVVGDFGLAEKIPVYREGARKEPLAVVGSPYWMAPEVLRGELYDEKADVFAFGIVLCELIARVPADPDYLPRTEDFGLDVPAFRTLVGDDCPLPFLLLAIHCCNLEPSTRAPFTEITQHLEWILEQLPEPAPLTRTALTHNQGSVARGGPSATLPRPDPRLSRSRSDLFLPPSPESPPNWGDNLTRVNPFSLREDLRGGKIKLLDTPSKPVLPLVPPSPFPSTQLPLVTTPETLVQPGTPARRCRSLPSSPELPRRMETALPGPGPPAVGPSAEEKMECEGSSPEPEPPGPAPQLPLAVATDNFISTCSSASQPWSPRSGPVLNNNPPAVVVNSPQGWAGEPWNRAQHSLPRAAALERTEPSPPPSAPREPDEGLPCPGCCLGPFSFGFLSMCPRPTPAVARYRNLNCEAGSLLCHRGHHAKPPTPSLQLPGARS
T35 sequence (Q14289 whole entry): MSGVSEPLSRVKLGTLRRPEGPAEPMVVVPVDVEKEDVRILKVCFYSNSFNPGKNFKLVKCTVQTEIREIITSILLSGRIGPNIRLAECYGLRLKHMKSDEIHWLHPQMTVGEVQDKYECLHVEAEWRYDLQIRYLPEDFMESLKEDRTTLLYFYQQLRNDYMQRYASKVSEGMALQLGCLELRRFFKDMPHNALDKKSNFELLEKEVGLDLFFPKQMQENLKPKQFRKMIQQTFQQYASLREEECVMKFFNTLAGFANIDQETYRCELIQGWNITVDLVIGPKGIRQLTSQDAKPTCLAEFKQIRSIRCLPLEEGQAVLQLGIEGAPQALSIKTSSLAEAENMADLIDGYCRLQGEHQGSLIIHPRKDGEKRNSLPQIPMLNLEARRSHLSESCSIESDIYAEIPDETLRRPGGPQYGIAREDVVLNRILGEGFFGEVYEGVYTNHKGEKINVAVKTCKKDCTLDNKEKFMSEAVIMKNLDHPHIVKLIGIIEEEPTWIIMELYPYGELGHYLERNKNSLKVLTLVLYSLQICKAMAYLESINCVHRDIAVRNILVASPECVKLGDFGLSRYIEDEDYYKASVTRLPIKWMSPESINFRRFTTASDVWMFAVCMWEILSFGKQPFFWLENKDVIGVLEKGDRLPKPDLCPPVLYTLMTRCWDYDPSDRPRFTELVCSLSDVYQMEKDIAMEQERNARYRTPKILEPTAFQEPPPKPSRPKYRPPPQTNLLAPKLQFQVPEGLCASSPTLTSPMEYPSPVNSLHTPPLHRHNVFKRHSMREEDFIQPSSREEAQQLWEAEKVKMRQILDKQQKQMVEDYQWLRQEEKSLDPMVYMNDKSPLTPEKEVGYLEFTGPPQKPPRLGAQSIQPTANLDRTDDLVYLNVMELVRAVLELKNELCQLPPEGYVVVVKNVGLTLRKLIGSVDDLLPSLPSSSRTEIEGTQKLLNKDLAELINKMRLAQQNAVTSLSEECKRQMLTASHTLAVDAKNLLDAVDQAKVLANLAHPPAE
T8 sequence (P00533 with tags, fused parts or gaps DEL747-752/P753S limits assumed): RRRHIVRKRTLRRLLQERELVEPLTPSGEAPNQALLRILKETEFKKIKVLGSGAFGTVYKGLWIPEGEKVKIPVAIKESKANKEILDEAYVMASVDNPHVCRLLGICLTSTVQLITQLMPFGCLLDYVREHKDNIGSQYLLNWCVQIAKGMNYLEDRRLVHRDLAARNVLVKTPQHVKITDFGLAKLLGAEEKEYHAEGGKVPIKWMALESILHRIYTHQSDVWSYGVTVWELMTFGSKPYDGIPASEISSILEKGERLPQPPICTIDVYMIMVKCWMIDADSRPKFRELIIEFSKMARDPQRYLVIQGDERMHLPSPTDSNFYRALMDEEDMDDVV
T6 sequence (P35968 20-1356): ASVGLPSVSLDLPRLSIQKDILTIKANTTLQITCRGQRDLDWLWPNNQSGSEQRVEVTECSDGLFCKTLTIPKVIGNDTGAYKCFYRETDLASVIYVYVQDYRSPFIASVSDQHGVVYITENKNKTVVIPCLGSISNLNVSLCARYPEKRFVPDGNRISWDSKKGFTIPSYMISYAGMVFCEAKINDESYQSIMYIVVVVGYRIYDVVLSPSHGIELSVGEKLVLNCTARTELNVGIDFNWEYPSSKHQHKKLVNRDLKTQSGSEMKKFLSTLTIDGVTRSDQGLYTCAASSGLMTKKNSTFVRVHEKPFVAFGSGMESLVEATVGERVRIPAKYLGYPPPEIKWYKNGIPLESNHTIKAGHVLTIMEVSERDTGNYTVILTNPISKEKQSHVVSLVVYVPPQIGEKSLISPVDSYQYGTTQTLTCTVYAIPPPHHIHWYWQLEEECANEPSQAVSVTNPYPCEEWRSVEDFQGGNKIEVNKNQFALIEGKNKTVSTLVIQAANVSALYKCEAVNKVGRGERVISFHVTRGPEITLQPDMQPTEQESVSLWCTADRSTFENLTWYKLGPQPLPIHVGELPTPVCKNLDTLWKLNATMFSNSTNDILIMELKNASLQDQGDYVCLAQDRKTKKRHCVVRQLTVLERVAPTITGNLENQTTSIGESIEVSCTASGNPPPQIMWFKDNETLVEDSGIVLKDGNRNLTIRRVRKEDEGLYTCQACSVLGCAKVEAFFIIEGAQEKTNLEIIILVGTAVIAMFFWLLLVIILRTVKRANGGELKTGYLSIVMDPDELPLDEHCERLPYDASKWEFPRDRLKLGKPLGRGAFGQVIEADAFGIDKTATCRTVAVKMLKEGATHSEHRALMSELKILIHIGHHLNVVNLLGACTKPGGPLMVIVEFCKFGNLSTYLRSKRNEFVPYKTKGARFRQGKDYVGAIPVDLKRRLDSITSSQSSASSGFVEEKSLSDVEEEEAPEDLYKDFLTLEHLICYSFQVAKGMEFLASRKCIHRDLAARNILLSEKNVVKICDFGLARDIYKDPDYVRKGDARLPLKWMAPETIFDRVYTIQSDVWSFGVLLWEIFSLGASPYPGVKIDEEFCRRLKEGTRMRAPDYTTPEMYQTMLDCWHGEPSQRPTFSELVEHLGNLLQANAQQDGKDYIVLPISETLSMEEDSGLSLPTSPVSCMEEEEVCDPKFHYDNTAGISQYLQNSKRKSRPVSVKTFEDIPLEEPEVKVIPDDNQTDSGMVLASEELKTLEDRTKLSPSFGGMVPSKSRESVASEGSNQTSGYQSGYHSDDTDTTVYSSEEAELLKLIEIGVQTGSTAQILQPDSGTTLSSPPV
T32 sequence (P36894 24-532): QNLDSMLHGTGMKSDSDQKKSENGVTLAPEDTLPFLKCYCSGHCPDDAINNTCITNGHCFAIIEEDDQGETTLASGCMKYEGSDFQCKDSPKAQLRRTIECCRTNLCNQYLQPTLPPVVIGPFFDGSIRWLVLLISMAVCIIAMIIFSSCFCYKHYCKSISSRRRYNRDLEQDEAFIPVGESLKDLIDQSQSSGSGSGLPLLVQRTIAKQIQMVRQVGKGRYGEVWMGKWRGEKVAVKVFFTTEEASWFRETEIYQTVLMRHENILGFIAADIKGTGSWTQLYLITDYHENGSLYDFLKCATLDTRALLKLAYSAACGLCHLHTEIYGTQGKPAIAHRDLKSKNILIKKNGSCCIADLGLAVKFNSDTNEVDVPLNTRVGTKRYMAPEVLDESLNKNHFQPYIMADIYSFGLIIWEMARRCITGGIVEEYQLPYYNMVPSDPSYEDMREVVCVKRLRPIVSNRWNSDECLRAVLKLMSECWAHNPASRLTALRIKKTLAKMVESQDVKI
T34 sequence (P49760 whole entry): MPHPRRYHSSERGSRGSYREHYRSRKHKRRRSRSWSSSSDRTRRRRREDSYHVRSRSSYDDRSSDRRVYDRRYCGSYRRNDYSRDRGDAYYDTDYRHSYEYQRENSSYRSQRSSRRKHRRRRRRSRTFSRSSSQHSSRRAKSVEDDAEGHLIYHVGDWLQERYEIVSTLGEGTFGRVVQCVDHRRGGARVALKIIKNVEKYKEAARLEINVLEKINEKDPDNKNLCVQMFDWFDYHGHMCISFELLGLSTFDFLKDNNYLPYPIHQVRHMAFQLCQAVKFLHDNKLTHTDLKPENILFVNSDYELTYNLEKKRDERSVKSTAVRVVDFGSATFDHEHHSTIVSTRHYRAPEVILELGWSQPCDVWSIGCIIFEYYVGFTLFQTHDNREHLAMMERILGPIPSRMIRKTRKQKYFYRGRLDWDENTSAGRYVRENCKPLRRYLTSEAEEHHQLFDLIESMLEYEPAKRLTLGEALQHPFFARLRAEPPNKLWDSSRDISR
T20 sequence (P51817 whole entry): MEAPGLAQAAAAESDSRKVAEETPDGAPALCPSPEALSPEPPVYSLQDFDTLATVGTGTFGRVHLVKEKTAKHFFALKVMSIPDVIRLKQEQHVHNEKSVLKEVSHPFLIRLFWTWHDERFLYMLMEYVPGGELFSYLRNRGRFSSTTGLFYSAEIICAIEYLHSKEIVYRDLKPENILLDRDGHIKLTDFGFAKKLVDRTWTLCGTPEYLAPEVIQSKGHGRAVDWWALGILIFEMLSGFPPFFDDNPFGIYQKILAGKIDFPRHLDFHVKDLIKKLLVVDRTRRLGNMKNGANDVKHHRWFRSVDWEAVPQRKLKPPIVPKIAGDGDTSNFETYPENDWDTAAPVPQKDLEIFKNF
T9 sequence (O75716 whole entry): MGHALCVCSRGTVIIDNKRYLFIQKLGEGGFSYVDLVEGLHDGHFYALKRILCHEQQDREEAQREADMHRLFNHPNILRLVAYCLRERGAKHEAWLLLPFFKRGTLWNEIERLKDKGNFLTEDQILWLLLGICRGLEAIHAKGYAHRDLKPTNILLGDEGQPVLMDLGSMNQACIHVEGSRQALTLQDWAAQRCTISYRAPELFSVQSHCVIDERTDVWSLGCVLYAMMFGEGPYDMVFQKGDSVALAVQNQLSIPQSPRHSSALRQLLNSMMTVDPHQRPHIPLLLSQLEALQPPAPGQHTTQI

In the case of `Cc1cccc(-c2cnc3occ(-c4ccc(C(=O)O)c(C5CCCC5)c4)c3c2)c1` [SGC-CAMKK2-1 (YL-36)], the remaining binding at 1 µM on WEE1 is 82%; on LTK, 100%; at TRPM6 it was 100%; on MKK7 it was 100%; at TESK1 it was 100%; at VEGFR2, 100%. Further, the remaining binding at 1 µM turned out to be 100% at NEK9; 59% in [1]; 93% at STK16; 85% on PIK3CA(I800L); 77% on PRKD3; 100% on YSK1. For the same molecule, the remaining binding at 1 µM on CHEK1 stood at 93%.

`O=C(O)c1ccc(-c2coc3ncc(-c4ccccc4)cc23)cc1Cl` [SGC-CAMKK2-1N (UNC-YL-83)]: the remaining binding at 1 µM on IKK-alpha amounted to 75%; on QSK, 46%; on DRAK1, 93%; at CDK11, 56%; at LCK it was 100%; on CSK it was 60%. Further, the remaining binding at 1 µM at PRKX is 76%; at FGFR3(G697C) it was 65%; on TRKB it was 81%; at ABL2, 100%; at YANK3, 70%; at MKNK1, 49%. Besides, the remaining binding at 1 µM at EPHA3 is 92%; on ACVRL1, 100%; on MYLK, 69%; on PIK3C2G, 100%; on MUSK, 100%; on MKNK2, 67%. Further, the remaining binding at 1 µM was 93% on BMPR1A, 85% on CAMK2G, 62% at CLK2 and 96% on PYK2.

Source of the values: publication PMC9856672, “SGC-CAMKK2-1: A Chemical Probe for CAMKK2” (Cells, 2023).
